Source: patent US20240132464A1, “HETEROCYCLIC COMPOUNDS AS E3 LIGASE INHIBITORS” (Accutar Biotechnology Inc., priority 2022, published 2024)

Biological target: T1, GID4 (Uniprot ID: Q81VV7, residues 124-289) (Homo sapiens, UniProt Q8IVV7)
T1 construct: GID4 (Uniprot ID: Q81VV7, residues 124-289)
T1 sequence (Q8IVV7 124-289): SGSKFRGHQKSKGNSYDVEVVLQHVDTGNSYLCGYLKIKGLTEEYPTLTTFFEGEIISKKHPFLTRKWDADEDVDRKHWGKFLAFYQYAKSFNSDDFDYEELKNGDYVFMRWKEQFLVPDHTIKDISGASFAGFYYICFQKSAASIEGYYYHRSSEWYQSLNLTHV
Assay: GID4 competitive binding assay (AlphaScreen, GID4/degron peptide PGLW)
Details: 24 nM GID4, 48 nM biotinylated degron peptide PGLW, 4° C., read-out: IC50 (Inhibition of GID4/Degron binding by test compounds)
Summary of the method: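 Displacement of biotin-tagged degron tetrapeptide PGLW (48 nM) from C-terminally 6His-tagged GID4 124-289 (24 nM) read by AlphaScreen proximity signal. Compound incubation 2 h, then beads 1 h, all at 4 °C, pH 7.5, 2% DMSO final; background-corrected inhibition fitted with variable slope for IC50.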

IC50 [nM] | SMILES
< 500 | CN(C)[C@H]1CC[C@@H](NC(=O)c2ccc(-c3cc(O)c4ncccc4c3)cc2)CC1 [Compound 286, N-(cis-4-(dimethylamino)cyclohexyl)-4-(8-hydroxyquinolin-6-yl)benzamide]
< 500 | CC(C)c1cc(N2CCNC(c3ccccc3I)C2)nc(N)n1 (stereo not shown) [Compound 176, 4-(3-(2-iodophenyl)piperazin-1-yl)-6-isopropylpyrimidin-2-amine]
< 500 | CN(C)CCCNC(=O)c1csc(-c2cc(O)c3ncccc3c2)c1 [Compound 281, N-(3-(dimethylamino)propyl)-5-(8-hydroxyquinolin-6-yl)thiophene-3-carboxamide]
500 to 5000 | Nc1nc(N2CCO[C@@H](c3ccccc3Br)C2)c2cc[nH]c2n1 (racemic) [Compound 40, (S/R)-4-(2-(2-bromophenyl)morpholino)-7H-pyrrolo[2,3-d]pyrimidin-2-amine]
500 to 5000 | CCc1ccccc1C1CN(c2cc(C(C)C)nc(N)n2)CCN1 (stereo not shown) [Compound 168, 4-(3-(2-ethylphenyl)piperazin-1-yl)-6-isopropylpyrimidin-2-amine]
< 500 | CN(C)CCCNC(=O)c1cc(F)c(-c2cc(O)c3ncccc3c2)cc1Cl [Compound 315, 2-chloro-N-(3-(dimethylamino)propyl)-5-fluoro-4-(8-hydroxyquinolin-6-yl)benzamide]
< 500 | CN(C)CCCNC(=O)c1cc(-c2cc(O)c3ncccc3c2)co1 [Compound 283, N-(3-(dimethylamino)propyl)-4-(8-hydroxyquinolin-6-yl)furan-2-carboxamide]
500 to 5000 | CC(C)c1cc(N2CCNC(c3cc(Br)ccc3Br)C2)nc(N)n1 (stereo not shown) [Compound 200, 4-(3-(2,5-dibromophenyl)piperazin-1-yl)-6-isopropylpyrimidin-2-amine]
< 500 | CC(C)c1cc(N2CCNC(c3ccc(F)cc3Br)C2)nc(N)n1 (stereo not shown) [Compound 173, 4-(3-(2-bromo-4-fluorophenyl)piperazin-1-yl)-6-isopropylpyrimidin-2-amine]
< 500 | CC(C)c1cc(N2CCCC(c3ncn4ccccc34)C2)nc(N)n1 (stereo not shown) [Compound 235, 4-(3-(imidazo[1,5-a]pyridin-1-yl)piperidin-1-yl)-6-isopropylpyrimidin-2-amine]
500 to 5000 | CC(C)c1cc(-c2cc(-c3ccnn3C)c3cccc(-c4cc[nH]n4)c3n2)cc(N)n1 [Compound 367, 6-isopropyl-4-(4-(1-methyl-1H-pyrazol-5-yl)-8-(1H-pyrazol-3-yl)quinolin-2-yl)pyridin-2-amine]

The remaining lines, values behind:

SMILES | IC50 [nM]
CC(C)c1cc(Nc2cccc(CC3CCNC3=O)c2)nc(N)n1 (stereo not shown) [Compound 197, 3-(3-((2-amino-6-isopropylpyrimidin-4-yl)amino)benzyl)pyrrolidin-2-one] | > 5000
Nc1cc(N2CCNC(c3cnc4ccccn34)C2)nc(N)n1 (racemic) [Compound 120, (R/S)-6-(3-(imidazo[1,2-a]pyridin-3-yl)piperazin-1-yl)pyrimidine-2,4-diamine] | 500 to 5000
CNc1cc(N2CCCC(n3nc4ccccc4n3)C2)nc(N)n1 (stereo not shown) [Compound 259, 6-(3-(2H-benzo[d][1,2,3]triazol-2-yl)piperidin-1-yl)-N4-methylpyrimidine-2,4-diamine] | > 5000
CNC(=O)CCC1CCCN(c2nc(N)nc3c2CCCN3)C1 (stereo not shown) [Compound 140, 3-(1-(2-amino-5,6,7,8-tetrahydropyrido[2,3-d]pyrimidin-4-yl)piperidin-3-yl)-N-methylpropanamide] | 500 to 5000
CC(C)c1nc(N)cc(N2CCN(C)C(c3ccccc3Br)C2)n1 (stereo not shown) [Compound 74, 6-(3-(2-bromophenyl)-4-methylpiperazin-1-yl)-2-isopropylpyrimidin-4-amine] | 500 to 5000
CC(C)c1cc(N2CCCC(c3c[nH]c4ccccc34)C2)nc(N)n1 (stereo not shown) [Compound 249, 4-(3-(1H-indol-3-yl)piperidin-1-yl)-6-isopropylpyrimidin-2-amine] | 500 to 5000
CN(C)[C@H]1C[C@H](NC(=O)c2ccc(-c3cc(O)c4ncccc4c3)cc2)C1 [Compound 280, N-(trans-3-(dimethylamino)cyclobutyl)-4-(8-hydroxyquinolin-6-yl)benzamide] | < 500
CC(C)c1cc(N2CCN(C)C(c3cnc4ccccn34)C2)nc(N)n1 (racemic) [Compound 106, (R/S)-4-(3-(imidazo[1,2-a]pyridin-3-yl)-4-methylpiperazin-1-yl)-6-isopropylpyrimidin-2-amine] | < 500
CC(C)c1cc(-c2cc(-c3ccnn3C)c3ccnc(-c4cc[nH]n4)c3n2)cc(N)n1 [Compound 366, 6-isopropyl-4-(4-(1-methyl-1H-pyrazol-5-yl)-8-(1H-pyrazol-3-yl)-1,7-naphthyridin-2-yl)pyridin-2-amine] | 500 to 5000
Nc1cc(N2CCCC(c3cnc4ccccn34)C2)nc(N)n1 (single isomer, unassigned) [Compound 115, (S/R)-6-(3-(imidazo[1,2-a]pyridin-3-yl)piperidin-1-yl)pyrimidine-2,4-diamine] | > 5000
CNc1cc(N2CCNC(c3ccccc3)C2)nc(N)n1 (single isomer, unassigned) [Compound 128, (R/S)-N4-methyl-6-(3-phenylpiperazin-1-yl)pyrimidine-2,4-diamine] | > 5000
Cc1c(-c2ccc(C(=O)NCCCN(C)C)cc2)cc(O)c2ncccc12 [Compound 319, N-(3-(dimethylamino)propyl)-4-(8-hydroxy-5-methylquinolin-6-yl)benzamide] | 500 to 5000
CC(C)c1cc(N2CCN(C)[C@@H](c3ccccc3Br)C2)nc(N)n1 (racemic) [Compound 161, (S/R)-4-(3-(2-bromophenyl)-4-methylpiperazin-1-yl)-6-isopropylpyrimidin-2-amine] | 500 to 5000
COc1cc(CNC(=O)c2n[nH]c3ccc(-c4ccc5ccnc(N)c5c4)cc23)ccn1 [Compound 326, 5-(1-aminoisoquinolin-7-yl)-N-((2-methoxypyridin-4-yl)methyl)-1H-indazole-3-carboxamide] | < 500
Nc1cc(N2CCCC(c3cnc4ccncn34)C2)nc(N)n1 (stereo not shown) [Compound 258, 6-(3-(imidazo[1,2-c]pyrimidin-3-yl)piperidin-1-yl)pyrimidine-2,4-diamine] | 500 to 5000
Nc1nc(N2CCCC(c3ccn[nH]3)C2)c2cnccc2n1 (stereo not shown) [Compound 218, 4-(3-(1H-pyrazol-5-yl)piperidin-1-yl)pyrido[4,3-d]pyrimidin-2-amine] | > 5000
CC(C)c1cc(N2CCCC(F)(c3ccccc3Br)C2)nc(N)n1 (stereo not shown) [Compound 233, 4-(3-(2-bromophenyl)-3-fluoropiperidin-1-yl)-6-isopropylpyrimidin-2-amine] | 500 to 5000
CC(C)c1cc(N2CCCC(c3cnc4ccccn34)C2)nc(NCCO)n1 (stereo not shown) [Compound 127, 2-((4-(3-(imidazo[1,2-a]pyridin-3-yl)piperidin-1-yl)-6-isopropylpyrimidin-2-yl)amino)ethan-1-ol] | > 5000
Nc1nc(N2CCN[C@@H](c3ccccc3Br)C2)c2cc[nH]c2n1 (racemic) [Compound 57, (S/R)-4-(3-(2-bromophenyl)piperazin-1-yl)-7H-pyrrolo[2,3-d]pyrimidin-2-amine] | 500 to 5000
CC(C)c1cc(N2CCNC(c3cc(C(=O)N4CCN(C)CC4)ccc3Br)C2)nc(N)n1 (single isomer, unassigned) [Compound 17, (R/S)-(3-(4-(2-amino-6-isopropylpyrimidin-4-yl)piperazin-2-yl)-4-bromophenyl)(4-methylpiperazin-1-yl)methanone] | < 500
